Data: patent US20040048237A1 (priority 2002, published 2004)
Peptide text beside a SMILES is read from it. * marks the point of attachment. Cbz = O=C(OCc1ccccc1)*

Columns and labels:
proteasome = format: cell-based

Compound | rate of N2A cell death (N2A cells) | cell death during proteasome inhibition relative to N2A cells (WtPN2A cells) | proteasome activity after MG132 treatment (proteasome) | proteasome activity restored after removal of MG132 (proteasome) | relative proteasome inhibiting activity (proteasome) | cells died (N2A cells)
epoxomicin | died at the same rates |  |  |  |  | 
CC(C)C[C@@H](C=O)NC(=O)[C@H](CC(C)C)NC(=O)[C@H](CC(C)C)NC(=O)OCc1ccccc1 [MG132] (Cbz-Leu-Leu-Leu-aldehyde) |  | died much more rapidly | undetectable | > 70 % of control levels | stronger proteasome inhibiting activity than 10 μM Lactacystin | More than 50%
